In publication PMC8406298, “Discovery of Fungus-Specific Targets and Inhibitors Using Chemical Phenotyping of Pathogenic Spore Germination” (mBio, 2021):

Tests used:
[1] = tested on: normal human dermal fibroblasts (NHDF) cells; experiment: Fibroblast cytotoxicity (CellTiter-Glo); assay type: cell-based; conditions: 10 µM
Method: PrimaPure normal human dermal fibroblasts (NHDF) cells (Genlatis PH10605A) were cultured and passaged in fibroblast growth medium (Genlatis PM116500) according to the manufacturer’s protocol. NHDF cells (1 × 10^3 per well) were plated in a 384-well plate in cell culture medium. The cells were incubated with each compound of interest at 10 μM concentration for 72 h at 37°C and 5% CO2. Following treatment, CellTiter-Glo (Promega) reagent was used to assay ATP-dependent luminescence and thus provide a measure of cell viability. […] For cytotoxicity dose-response curves (Fig. 4C and Fig. 5C), compounds were titrated from 80 μM to 0.5 μM in duplicates.

[2] = tested on: Cryptococcus yeast (CHY3833 and CHY3836); experiment: Yeast replication secondary screen (OD600); assay type: cell-based, Cryptococcus neoformans serotype D (deneoformans); conditions: 10 μM, 12 h at 30°C
Method: (ii) Yeast replication. CHY3833 and CHY3836 were each grown in YPD liquid overnight at 30°C to saturation and then resuspended in 0.5× YPD at an OD600 of 0.005. Strains were aliquoted into 384-well plates with inhibitors and grown for 12 h at 30°C at […] before OD600 readings were taken. Compounds that caused a >10% decrease in growth were considered yeast growth inhibitors.

| SMILES | Cytotoxicity: Relative Cell Viability (% of Negative Control) [1] | Yeast Inhibition: % Inhibition [2] [%] |
| --- | --- | --- |
| O=c1[nH]sc2ccccc12 [compound 17520] | 3.3 % of Negative Control | 101.5 |
| Oc1ccc2cc(Br)ccc2c1 [compound 27144] | 31.7 % of Negative Control | 100.0 |
| Oc1ccc(-c2ccccc2)cc1Br [compound 27297] | 4.7 % of Negative Control | 101.8 |
| Cc1n[nH]c(C)c1Br [compound 76937] | 59.9 % of Negative Control | 22.1 |
| N#CSC1C=CS(=O)(=O)C1 (stereo not drawn) [compound 99741] | 40.8 % of Negative Control | 49.2 |
| COc1ccc(C2=CC(=O)C=CC2=O)cc1 [compound 121637] | 3.0 % of Negative Control | 100.9 |
| Cc1ccc(Nc2cc(Cl)nc(N)n2)cc1Cl [compound 243059] | 46.1 % of Negative Control | 98.9 |
| COc1ccc(CCN2C(=O)C=CC2=O)cc1OC [compound 282938] | 24.9 % of Negative Control | 101.4 |
| N#Cc1nc2c(nc1C#N)-c1ccccc1C2=O [compound 292929] | 5.9 % of Negative Control | 100.6 |
| Cc1ccc(CN2C(=O)C=CC2=O)cc1 [compound 302279] | 3.1 % of Negative Control | 101.5 |
| O=S(=O)(Nc1cccc2ccccc12)c1ccc(Cl)cc1 [compound 310131] | 67.0 % of Negative Control | 59.8 |
| CCOC(=O)c1ccc(NC(=O)CCc2ccc(CC)o2)cc1 [compound 652808] | 113.1 % of Negative Control | 28.0 |
| CC(C)(C)c1ccc(-c2csc(N)n2)cc1 [compound 673711] | 86.3 % of Negative Control | 94.3 |
| Cc1ccc2occ(C=O)c(=O)c2c1 [compound 688709] | 91.6 % of Negative Control | 100.0 |
| CC(C)Cc1nnc(NC(=O)C(Cl)Cl)s1 [compound 697528] | 96.1 % of Negative Control | 71.6 |
| Oc1ccccc1-c1cc2ccccc2[nH]1 [compound 700009] | 96.3 % of Negative Control | 82.2 |
| Cc1ccc(C)c(S(=O)(=O)n2cnc3ccccc32)c1 [compound 700148] | 84.1 % of Negative Control | 59.4 |
| O=C(NC(=S)NCc1ccccc1)c1ccccc1 [compound 700976] | 97.5 % of Negative Control | 78.1 |
| O=C(Nc1nc2c(s1)CCc1ccccc1-2)c1ccco1 [compound 701070] | 92.9 % of Negative Control | 1.7 |
| NC(=O)/C=C/C(=O)Nc1cccc(C(F)(F)F)c1 [compound 707936] | 3.5 % of Negative Control | 101.2 |
| Cc1ccc(C)c(N2C(=O)C=CC2=O)c1 [compound 709153] | 3.3 % of Negative Control | 101.9 |

| SMILES | Cytotoxicity: Relative Cell Viability (% of Negative Control) [1] | Yeast Inhibition: % Inhibition [2] [%] |
| --- | --- | --- |
| CC1CCN(C(=O)COc2ccc(-c3ccccc3)cc2)CC1 [compound 717711] | 90.0 % of Negative Control | 28.9 |
| CN(C)c1ccc(NC(=O)/C=C/c2ccccc2Cl)cc1 [compound 723732] | 79.8 % of Negative Control | 27.8 |
| CC(C)=CC(=O)Nc1ccc(OCc2ccccc2)cc1 [compound 731806] | 91.1 % of Negative Control | 64.0 |
| Cc1nc(NC(=O)CCc2ccccc2)sc1C [compound 733834] | 96.8 % of Negative Control | 89.7 |
| Cc1ccccc1OCCn1cnc2ccccc21 [compound 749608] | 96.0 % of Negative Control | 75.5 |
| COc1ccc(Cc2nc3ccccc3[nH]2)cc1 [compound 763894] | 98.0 % of Negative Control | 23.2 |
| COc1ccccc1NS(=O)(=O)c1cc(Cl)ccc1Cl [compound 766532] | 56.4 % of Negative Control | 96.0 |
| Oc1ccc(C2(c3cccc(Cl)c3)CCCC2)cc1 [compound 767639] | 96.2 % of Negative Control | 74.0 |
| O=C(/C=C/c1ccco1)N1CCCc2ccccc21 [compound 768672] | 109.0 % of Negative Control | 37.4 |
| CCc1ccc2nc(N)sc2c1 [compound 773093] | 62.5 % of Negative Control | 73.1 |
| Nc1nc(-c2ccc(Oc3ccccc3)cc2)cs1 [compound 780598] | 97.5 % of Negative Control | 81.0 |
| Cc1ccc(OCCn2c(C)nc3ccccc32)cc1 [compound 790960] | 90.6 % of Negative Control | 81.4 |
| C[n+]1sc(Nc2ccccc2)nc1-c1ccccc1 [compound 803194] | 16.5 % of Negative Control | 98.4 |
| O=Cc1sc(=O)n(Cc2ccccc2)c1Cl [compound 820752] | 115.4 % of Negative Control | 101.8 |
| O=C(Nc1ccc2[nH]c3c(c2c1)CCCC3)c1ccco1 [compound 852322] | 77.3 % of Negative Control | 65.7 |
| COC(=O)c1c(N)sc(C)c1-c1ccc(F)cc1 [compound 874714] | 75.9 % of Negative Control | 87.6 |
| Cc1ccc(C)c(CSc2nc3ccccc3[nH]2)c1 [compound 899259] | 84.5 % of Negative Control | 45.3 |
| c1ccc(CNc2ncnc3scc(-c4cccs4)c23)nc1 [compound 944383] | 92.9 % of Negative Control | 53.4 |
| Clc1ccc2nc(SCCc3ccccc3)[nH]c2c1 [compound 955598] | 34.2 % of Negative Control | 98.2 |
| Nc1nc(-c2ccccn2)cs1 [compound 1092459] |  | 100.0 |
